Results published in patent publication US9453053B2, “Short peptides for enhancing muscle function” (UNIVERSITAT HEIDELBERG, priority 2010, dated 2016).
“Also recorded” adds a separate entry of the source. Ends that are not written are not given here.

Tests used:
[1] = tested on: isolated rat ventricular cardiomyocytes; format: cell-based; details: for increase in the calcium transient amplitude over control cells, functional equivalence compared to S100A1ct6/11: FIG. 26, 2 Hz, peptides added 30 min before assessment; for effect on calcium transient amplitudes: FIG. 25, field-stimulated (1 Hz) isolated rat ventricular cardiomyocytes
[2] = tested on: adult intact cardiomyocytes or skeletal muscle fibers; assay: Calcium homeostasis in adult intact cardiomyocytes or skeletal muscle fibers; format: cell-based; details: adult intact (non-permeabilized) cardiomyocytes or skeletal muscle fibers
RyR2 = target: T1, RyR2 (Oryctolagus cuniculus, UniProt P30957); assay: Ca2+-spark frequency in permeabilized cardiomyocytes; format: cell-based, rabbit
T1 construct: Adult ventricular rabbit cardiomyocytes were isolated from four different animals; endogenous in cells; host or cells: adult ventricular rabbit cardiomyocytes, permeabilized with beta-escin
T1 sequence (P30957 whole entry): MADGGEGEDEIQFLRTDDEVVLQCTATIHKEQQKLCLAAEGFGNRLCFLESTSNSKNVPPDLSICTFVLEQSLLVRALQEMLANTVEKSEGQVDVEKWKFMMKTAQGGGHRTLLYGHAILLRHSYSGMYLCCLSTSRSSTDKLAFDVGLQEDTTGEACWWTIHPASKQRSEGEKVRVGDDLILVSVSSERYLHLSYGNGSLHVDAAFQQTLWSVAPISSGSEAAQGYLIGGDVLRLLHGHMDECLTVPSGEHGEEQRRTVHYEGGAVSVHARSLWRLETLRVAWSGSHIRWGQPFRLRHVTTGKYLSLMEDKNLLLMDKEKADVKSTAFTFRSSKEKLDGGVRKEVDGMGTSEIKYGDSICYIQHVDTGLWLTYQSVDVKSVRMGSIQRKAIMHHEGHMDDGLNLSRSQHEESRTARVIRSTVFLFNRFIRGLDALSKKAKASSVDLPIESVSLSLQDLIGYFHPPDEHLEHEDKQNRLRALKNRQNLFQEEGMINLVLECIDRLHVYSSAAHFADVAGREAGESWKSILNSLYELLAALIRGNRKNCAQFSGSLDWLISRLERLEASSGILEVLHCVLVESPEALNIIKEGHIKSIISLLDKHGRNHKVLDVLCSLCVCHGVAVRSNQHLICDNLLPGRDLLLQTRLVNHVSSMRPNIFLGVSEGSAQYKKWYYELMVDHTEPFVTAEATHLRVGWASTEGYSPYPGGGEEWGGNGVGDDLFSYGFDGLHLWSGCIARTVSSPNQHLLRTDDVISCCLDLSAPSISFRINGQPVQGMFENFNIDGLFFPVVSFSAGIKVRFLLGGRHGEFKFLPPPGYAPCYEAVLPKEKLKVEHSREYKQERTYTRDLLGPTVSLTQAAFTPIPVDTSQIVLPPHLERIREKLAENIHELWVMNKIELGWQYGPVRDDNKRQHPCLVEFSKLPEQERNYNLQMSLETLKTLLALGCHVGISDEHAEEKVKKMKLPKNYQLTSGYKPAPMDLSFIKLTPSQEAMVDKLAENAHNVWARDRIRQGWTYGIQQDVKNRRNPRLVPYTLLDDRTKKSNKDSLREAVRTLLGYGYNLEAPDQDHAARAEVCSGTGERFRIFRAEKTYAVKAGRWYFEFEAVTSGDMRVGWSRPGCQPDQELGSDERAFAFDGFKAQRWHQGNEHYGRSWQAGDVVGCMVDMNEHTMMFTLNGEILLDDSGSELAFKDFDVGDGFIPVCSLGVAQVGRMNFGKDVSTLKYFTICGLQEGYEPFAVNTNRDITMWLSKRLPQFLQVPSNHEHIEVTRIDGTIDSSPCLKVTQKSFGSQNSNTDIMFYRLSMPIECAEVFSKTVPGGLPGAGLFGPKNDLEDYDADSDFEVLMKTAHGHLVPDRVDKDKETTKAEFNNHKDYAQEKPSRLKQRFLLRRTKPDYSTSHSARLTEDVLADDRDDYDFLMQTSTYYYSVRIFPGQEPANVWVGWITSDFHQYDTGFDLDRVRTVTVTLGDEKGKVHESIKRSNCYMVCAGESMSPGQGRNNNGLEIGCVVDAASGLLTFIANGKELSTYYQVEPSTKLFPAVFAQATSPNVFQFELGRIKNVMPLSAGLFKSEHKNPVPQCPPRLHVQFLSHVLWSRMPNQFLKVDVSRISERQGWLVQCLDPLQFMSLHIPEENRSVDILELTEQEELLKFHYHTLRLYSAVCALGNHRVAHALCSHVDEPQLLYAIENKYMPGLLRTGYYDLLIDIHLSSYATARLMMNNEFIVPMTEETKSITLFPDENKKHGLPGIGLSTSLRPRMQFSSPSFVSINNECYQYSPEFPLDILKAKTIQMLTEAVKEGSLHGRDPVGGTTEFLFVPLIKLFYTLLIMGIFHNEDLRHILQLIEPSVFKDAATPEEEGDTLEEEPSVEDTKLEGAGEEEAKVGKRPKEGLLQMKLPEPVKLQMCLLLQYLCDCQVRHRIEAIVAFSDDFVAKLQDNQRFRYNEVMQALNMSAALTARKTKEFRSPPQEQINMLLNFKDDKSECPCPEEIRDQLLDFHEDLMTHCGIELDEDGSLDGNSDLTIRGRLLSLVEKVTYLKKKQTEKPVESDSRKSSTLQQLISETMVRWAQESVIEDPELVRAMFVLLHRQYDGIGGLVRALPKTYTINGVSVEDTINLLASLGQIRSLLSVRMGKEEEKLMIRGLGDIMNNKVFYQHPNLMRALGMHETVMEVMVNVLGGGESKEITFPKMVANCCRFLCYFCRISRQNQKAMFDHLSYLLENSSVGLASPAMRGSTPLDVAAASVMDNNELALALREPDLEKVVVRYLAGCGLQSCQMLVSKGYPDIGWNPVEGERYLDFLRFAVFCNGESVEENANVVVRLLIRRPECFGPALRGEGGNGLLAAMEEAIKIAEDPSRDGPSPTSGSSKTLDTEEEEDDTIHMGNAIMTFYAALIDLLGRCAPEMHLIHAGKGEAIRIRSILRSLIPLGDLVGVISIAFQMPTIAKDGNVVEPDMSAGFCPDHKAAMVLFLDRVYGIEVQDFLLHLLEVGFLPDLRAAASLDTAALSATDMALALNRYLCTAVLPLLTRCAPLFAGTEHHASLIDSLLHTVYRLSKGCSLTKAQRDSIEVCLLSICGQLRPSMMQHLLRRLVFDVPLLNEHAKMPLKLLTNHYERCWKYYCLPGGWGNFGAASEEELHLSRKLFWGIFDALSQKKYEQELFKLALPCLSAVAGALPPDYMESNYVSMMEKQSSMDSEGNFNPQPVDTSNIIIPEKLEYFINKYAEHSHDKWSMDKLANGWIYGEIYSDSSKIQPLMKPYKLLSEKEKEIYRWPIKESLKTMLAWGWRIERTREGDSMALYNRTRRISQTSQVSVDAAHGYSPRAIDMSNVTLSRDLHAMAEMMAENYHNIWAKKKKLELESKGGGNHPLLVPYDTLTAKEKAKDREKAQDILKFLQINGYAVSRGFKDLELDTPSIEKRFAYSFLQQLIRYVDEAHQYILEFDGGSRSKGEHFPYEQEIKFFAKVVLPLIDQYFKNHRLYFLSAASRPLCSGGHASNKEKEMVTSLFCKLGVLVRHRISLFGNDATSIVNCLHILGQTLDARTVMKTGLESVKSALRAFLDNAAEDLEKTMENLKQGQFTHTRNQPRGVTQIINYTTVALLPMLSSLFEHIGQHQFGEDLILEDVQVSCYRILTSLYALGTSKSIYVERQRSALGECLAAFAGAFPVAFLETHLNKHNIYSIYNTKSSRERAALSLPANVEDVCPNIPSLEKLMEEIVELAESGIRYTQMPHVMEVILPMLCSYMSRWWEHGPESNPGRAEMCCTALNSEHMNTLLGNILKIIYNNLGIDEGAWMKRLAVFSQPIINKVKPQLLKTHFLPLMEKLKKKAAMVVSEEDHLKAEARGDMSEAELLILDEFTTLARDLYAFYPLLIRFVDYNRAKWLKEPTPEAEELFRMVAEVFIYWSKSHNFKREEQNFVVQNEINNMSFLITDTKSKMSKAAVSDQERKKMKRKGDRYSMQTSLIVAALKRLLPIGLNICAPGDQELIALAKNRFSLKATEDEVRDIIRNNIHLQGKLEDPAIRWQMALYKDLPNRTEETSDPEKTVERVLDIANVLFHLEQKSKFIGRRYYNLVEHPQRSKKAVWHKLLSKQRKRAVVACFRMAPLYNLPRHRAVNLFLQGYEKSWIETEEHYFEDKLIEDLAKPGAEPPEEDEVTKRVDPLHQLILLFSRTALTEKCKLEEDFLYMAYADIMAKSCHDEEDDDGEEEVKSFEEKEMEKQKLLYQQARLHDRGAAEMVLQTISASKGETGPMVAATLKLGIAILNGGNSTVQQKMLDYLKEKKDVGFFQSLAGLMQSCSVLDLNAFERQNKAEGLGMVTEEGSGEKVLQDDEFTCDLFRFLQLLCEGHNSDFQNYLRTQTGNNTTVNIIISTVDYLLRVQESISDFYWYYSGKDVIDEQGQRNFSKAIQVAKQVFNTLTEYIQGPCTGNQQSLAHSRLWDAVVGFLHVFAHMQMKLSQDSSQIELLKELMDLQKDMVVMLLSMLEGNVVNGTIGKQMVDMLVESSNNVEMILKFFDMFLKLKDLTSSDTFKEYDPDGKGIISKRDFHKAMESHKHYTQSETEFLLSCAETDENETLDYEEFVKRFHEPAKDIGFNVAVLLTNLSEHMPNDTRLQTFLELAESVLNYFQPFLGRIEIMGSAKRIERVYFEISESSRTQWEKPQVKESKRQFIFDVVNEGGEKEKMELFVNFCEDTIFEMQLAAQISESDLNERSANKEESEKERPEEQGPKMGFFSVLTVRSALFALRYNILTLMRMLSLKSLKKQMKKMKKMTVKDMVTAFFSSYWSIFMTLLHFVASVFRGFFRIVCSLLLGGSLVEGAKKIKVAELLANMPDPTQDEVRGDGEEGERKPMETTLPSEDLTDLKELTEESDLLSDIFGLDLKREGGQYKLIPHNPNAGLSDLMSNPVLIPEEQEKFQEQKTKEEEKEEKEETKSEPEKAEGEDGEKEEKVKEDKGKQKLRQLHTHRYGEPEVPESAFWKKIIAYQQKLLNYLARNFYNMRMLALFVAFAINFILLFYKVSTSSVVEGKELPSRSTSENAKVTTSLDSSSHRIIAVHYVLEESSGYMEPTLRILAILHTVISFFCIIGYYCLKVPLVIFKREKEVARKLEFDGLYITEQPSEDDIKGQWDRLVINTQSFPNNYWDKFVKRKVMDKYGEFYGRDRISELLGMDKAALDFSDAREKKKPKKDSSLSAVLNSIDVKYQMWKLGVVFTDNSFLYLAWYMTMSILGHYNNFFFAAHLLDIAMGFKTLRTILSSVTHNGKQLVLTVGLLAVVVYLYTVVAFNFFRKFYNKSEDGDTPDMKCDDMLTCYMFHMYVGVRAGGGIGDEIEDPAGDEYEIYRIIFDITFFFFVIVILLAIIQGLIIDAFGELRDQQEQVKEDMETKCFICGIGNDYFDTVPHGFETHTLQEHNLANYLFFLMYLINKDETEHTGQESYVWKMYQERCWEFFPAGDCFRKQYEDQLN
Procedure: Adult ventricular rabbit cardiomyocytes were isolated from four different animals as previously described (Loughrey C. M. et al., 2004, J. Physiol. 556:919-934) and permeabilized using β-escin (0.1 mg/ml). The permeabilized cells were incubated for 1 minute with rhodamine-labeled human S100A1 protein (0.1 μM) or FITC-labeled S100A1 C-terminal 20-mer peptide (0.1 μM) fused to a hydrophilic element (i.e. amino acids 75 to 94 of human S100A1 fused to the hydrophilic element D-K-D-D-P-P (SEQ ID NO: 17)). Cells were monitored using a Bio-Rad 2000 laser scanning confocal microscope (LSCM). A striated staining pattern can be observed that resembles the ryanodine staining pattern (FIG. 4).
Furthermore, Ca^2+-spark frequency has been assessed in the permeabilized cells treated with S100A1 protein or the S100A1 C-terminal 20-mer peptide fused to a hydrophilic element and it was shown that both, the full-length protein as well as the C-terminal fragment, decrease calcium spark frequency in permeabilized cardiomyocytes (FIGS. 5 and 6). […] Fluo-3 free acid (10 μM) present in the perfusing solution was excited at 488 nm (Kr-laser) and measured at >515 nm applying epifluorescence optics of an inverted microscope with a ×60-1.2 NA water-immersion objective lens. Fluorescence was acquired in line scan mode at 2 ms line^−1; pixel dimension was 0.3 μm (512 pixels scan^−1; zoom=1.4). […]

[3] = tested on: permeabilized EDL murine skeletal muscle fibers; assay: Isometric twitch force in permeabilized skeletal muscle fibers; format: cell-based, mouse
Procedure: Muscle Fiber Preparation and Experimental Solutions. All of the animals were handled according to the guidelines of the animal care committee of the University of Heidelberg. Male BALB/c mice (3-6-months-old) were sacrificed by an overdose of carbon dioxide, and muscle fiber preparation was carried out as previously described (Fink R. H. and Stephenson D. G., 1987, Pflugers Arch. Eur. J. Physiol. 409:374-380; Makabe M. et al., 1996, Pflugers Arch. Eur. J. Physiol. 432: 717-726). Either EDL (M. ext. dig. longum) or Soleus was isolated, and a small fiber bundle containing two to four single fibers (between 80 and 150 μm in diameter and 3-4-mm-long) was dissected in paraffin oil. […] The free ion concentrations were calculated with the computer program REACT (version 2.0) from G. L. Smith (Glasgow, Scotland). […]
It was shown that both, the full-length S100A1 protein as well as the C-terminal fragment, has a potency to enhance isometric twitch force in permeabilized murine skeletal muscle fibers (FIG. 7). […] Maximum force was measured in the high activating solution at pCa 4.28 and 5 mM caffeine. […] Several control transients were recorded before the fiber was exposed to the S100A1 protein or the S100A1 peptide mixture (N/H/C) or the C-terminal 20-mer alone, and the experiment was repeated as outlined above. […]

Substance | increase in the calcium transient amplitude over control cells, functional equivalence compared to S100A1ct6/11 [1] | effect on calcium transient amplitudes [1] | also measured
D-K-D-D-P-P-V-V-L-V-A-A-L-T (DKDDPPVVLVAALT; Functional peptide (Fig. 26)) [76-83] | partial functional equivalence | – | –
DKDDPPYVVLVAALTVA [S100A1ct6/11, D-K-D-D-P-P-Y-V-V-L-V-A-A-L-T-V-A (SEQ ID NO: 42)] | – | – | EC50 [1]: 87 ± 6 nM
D-K-D-D-P-P-V-A-A-L-T-V-A (DKDDPPVAALTVA; Functional peptide (Fig. 26)) [79-85] | partial functional equivalence | abolishes the inotropic effect | –
D-K-D-D-P-P-V-L-V-A-A-L-T-V-A (DKDDPPVLVAALTVA; Functional peptide (Fig. 26)) [77-85] | partial functional equivalence | abolishes the inotropic effect | –
D-K-D-D-P-P-V-V-L-V-A-A-L-T-V (DKDDPPVVLVAALTV; Functional peptide (Fig. 26)) [76-84] | full functional equivalence | – | –
S100A1 protein: native human S100A1 protein, 94 amino acids, SEQ ID NO: 38; recombinant, rhodamine-labeled for imaging | – | – | calcium homeostasis [2]: does not alter; diastolic calcium spark frequency and RyR2 activity (RyR2): decreases; isometric twitch force [3]: enhances; also recorded: equivalent biological potency to enhance isometric force
D-K-D-D-P-P-L-V-A-A-L-T-V-A (DKDDPPLVAALTVA) [N-78-85-C] | – | abolishes the inotropic effect | –
D-K-D-D-P-P-V-V-L-V-A-A-L (DKDDPPVVLVAAL; Functional peptide (Fig. 26)) [76-82] | partial functional equivalence | – | –
YVVLVAALTVACNNFFWENS (SEQ ID NO: 39) (YVVLVAALTVACNNFFWENS; amino acids 75 to 94 of human S100A1) [20-mer S100A1 C-terminal peptide, amino acids 75-94 of human S100A1, reference compound] | – | – | calcium homeostasis [2]: does not alter; diastolic calcium spark frequency and RyR2 activity (RyR2): decreases; isometric twitch force [3]: enhances; also recorded: equivalent biological potency to enhance isometric force
D-K-D-D-P-P (DKDDPP; hydrophilic motif) [hydrophobic element, 6-mer hydrophilic motif tested alone as control, reference compound] | – | do not exhibit the inotropic effect | –
